Where “and” joins values, the source holds several entries; their conditions need not be identical. Identical values can stand only once. Toxic doses and inconclusive results are not listed. How the source made its calls: active means survival T/C of 150% or more; inactive means T/C below 125% in these data.
System: CD2F1 mice, L1210 leukemia ip, survival T/C
Experiment: NCI In Vivo Anticancer Drug Screen. Data for tumor model L1210 Leukemia (intraperitoneal) in CD2F1 (CDF1) mice
Details: higher = longer survival
Method in brief: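 Implant tumor; dose compound or vehicle; measure endpoint in both groups; report treated divided by control.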

[1] = endpoint: mean survival time, dose: 100.0 mg/kg/injection, schedule: Q01DX009 (ip), vehicle: saline with Tween-80
[2] = endpoint: mean survival time, dose: 100.0 mg/kg/injection, schedule: Q04DX003 (ip), vehicle: saline with Tween-80
[3] = endpoint: mean survival time, dose: 200.0 mg/kg/injection, schedule: Q01DX009 (ip), vehicle: saline with Tween-80
[4] = endpoint: mean survival time, dose: 200.0 mg/kg/injection, schedule: Q04DX003 (ip), vehicle: saline with Tween-80
[5] = endpoint: mean survival time, dose: 400.0 mg/kg/injection, schedule: Q01DX009 (ip), vehicle: saline with Tween-80
[6] = endpoint: mean survival time, dose: 400.0 mg/kg/injection, schedule: Q04DX003 (ip), vehicle: saline with Tween-80
[7] = endpoint: mean survival time, dose: 100.0 mg/kg/injection, schedule: Q01DX001 (ip), vehicle: saline with Tween-80
[8] = endpoint: mean survival time, dose: 200.0 mg/kg/injection, schedule: Q01DX001 (ip), vehicle: saline with Tween-80
[9] = endpoint: mean survival time, dose: 400.0 mg/kg/injection, schedule: Q01DX001 (ip), vehicle: saline with Tween-80
[10] = endpoint: mean survival time, dose: 100.0 mg/kg/injection, schedule: Q01DX009 (ip), vehicle: saline sonified
[11] = endpoint: mean survival time, dose: 200.0 mg/kg/injection, schedule: Q01DX009 (ip), vehicle: saline sonified
[12] = endpoint: mean survival time, dose: 400.0 mg/kg/injection, schedule: Q01DX009 (ip), vehicle: saline sonified
[13] = endpoint: median survival time, dose: 25.0 mg/kg/injection, schedule: Q01DX009 (ip), vehicle: saline
[14] = endpoint: median survival time, dose: 50.0 mg/kg/injection, schedule: Q01DX009 (ip), vehicle: saline
[15] = endpoint: median survival time, dose: 100.0 mg/kg/injection, schedule: Q01DX009 (ip), vehicle: saline

Measured: T/C

Cc1cn(C2CC(O)C(CO)O2)c(=O)nc1NC1CC1 (stereo unspecified)
inactive: endpoint: median survival time, dose: 12.5 mg/kg/injection, schedule: Q01DX005 (ip), vehicle: water 102 % of control | endpoint: median survival time, dose: 25.0 mg/kg/injection, schedule: Q01DX005 (ip), vehicle: water 102 % of control | endpoint: median survival time, dose: 50.0 mg/kg/injection, schedule: Q01DX005 (ip), vehicle: water 104 % of control | endpoint: median survival time, dose: 100.0 mg/kg/injection, schedule: Q01DX005 (ip), vehicle: water 103 % of control | endpoint: median survival time, dose: 200.0 mg/kg/injection, schedule: Q01DX005 (ip), vehicle: water 102 % of control

CC1(C)C2=CCCC3(OCCO3)C2(C)CCC1O (stereo unspecified)
inactive: [1] 104 % of control | [2] 98 % of control | [3] 106 % of control | [4] 98 % of control | [5] 98 % of control | [6] 101 % of control

CCOC(=O)C1=NN(c2ccccc2)C(=O)C1
inactive: [1] 94 % of control | [3] 94 % of control | [5] 92 % of control

O=NNc1cccnc1
inactive: endpoint: median survival time, dose: 6.25 mg/kg/injection, schedule: Q01DX009 (ip), vehicle: water 96 % of control | endpoint: median survival time, dose: 12.5 mg/kg/injection, schedule: Q01DX009 (ip), vehicle: water 99 % of control | endpoint: median survival time, dose: 25.0 mg/kg/injection, schedule: Q01DX009 (ip), vehicle: water 99 % of control

O=C1NC23C(=O)N(C4CCCCC4)CC2(Cc2ccccc2)c2ccccc2N3C1=O (stereo unspecified)
inactive: [7] 86 % of control | [8] 92 % of control | [9] 86 % of control

COC(=O)Nc1nc2ccc(C(=O)c3ccccc3)cc2[nH]1
inactive: endpoint: mean survival time, dose: 2.0 mg/kg/injection, schedule: Q04DX003 (ip), vehicle: saline with Tween-80 94 % of control | endpoint: mean survival time, dose: 4.0 mg/kg/injection, schedule: Q04DX003 (ip), vehicle: saline with Tween-80 94 % of control | endpoint: mean survival time, dose: 8.0 mg/kg/injection, schedule: Q04DX003 (ip), vehicle: saline with Tween-80 91 % of control | endpoint: mean survival time, dose: 16.0 mg/kg/injection, schedule: Q04DX003 (ip), vehicle: saline with Tween-80 100 % of control and 112 % of control

COc1cc(C=O)ccc1OC1OC(C(COC(C)=O)OC(C)=O)C(OC(C)=O)C(OC(C)=O)C1OC(C)=O (stereo unspecified)
inactive: endpoint: mean survival time, dose: 50.0 mg/kg/injection, schedule: Q01DX001 (ip), vehicle: saline with Tween-80 93 % of control | [7] 88 % of control | [8] 88 % of control

CCCCNc1cc(Nc2ccc(Br)cc2)nc(N)n1
inactive: endpoint: mean survival time, dose: 50.0 mg/kg/injection, schedule: Q01DX009 (ip), vehicle: saline with Tween-80 98 % of control | [1] 97 % of control | [3] 98 % of control

Cc1sc(N)c(C#N)c1C
inactive: [10] 102 % of control | [11] 102 % of control | [12] 103 % of control

COc1ccc(CCc2nc(CCCCO)[nH]c2C)cc1OC
inactive: [1] 92 % of control

O=c1c2ccccc2[nH]c2cccc([N+](=O)[O-])c12
inactive: [1] 102 % of control | [2] 94 % of control | [3] 98 % of control | [4] 94 % of control | [5] 96 % of control | [6] 91 % of control

N=C1CCCS1
inactive: [13] 112 % of control | [14] 116 % of control | [15] 122 % of control

O=c1[nH]c(=O)n2ncc(Br)c2[nH]1
inactive: endpoint: median survival time, dose: 50.0 mg/kg/injection, schedule: Q01DX005 (ip), vehicle: saline 102 % of control | endpoint: median survival time, dose: 100.0 mg/kg/injection, schedule: Q01DX005 (ip), vehicle: saline 102 % of control

CC(=O)OCC1OC(c2cccc3c2c2ccccc2n3S(=O)(=O)c2ccccc2)C(O)C1O (stereo unspecified)
inactive: endpoint: median survival time, dose: 12.5 mg/kg/injection, schedule: Q01DX005 (ip), vehicle: saline with Tween-80 110 % of control | endpoint: median survival time, dose: 25.0 mg/kg/injection, schedule: Q01DX005 (ip), vehicle: saline with Tween-80 107 % of control | endpoint: median survival time, dose: 50.0 mg/kg/injection, schedule: Q01DX005 (ip), vehicle: saline with Tween-80 96 % of control | endpoint: median survival time, dose: 100.0 mg/kg/injection, schedule: Q01DX005 (ip), vehicle: saline with Tween-80 98 % of control | endpoint: median survival time, dose: 200.0 mg/kg/injection, schedule: Q01DX005 (ip), vehicle: saline with Tween-80 98 % of control

Cn1cnc([N+](=O)[O-])c1Sc1ncnc2c1ncn2C1CC(O)C(CO)O1 (stereo unspecified)
inactive: endpoint: median survival time, dose: 3.75 mg/kg/injection, schedule: Q01DX005 (ip), vehicle: saline with Tween-80 104 % of control | endpoint: median survival time, dose: 7.5 mg/kg/injection, schedule: Q01DX005 (ip), vehicle: saline with Tween-80 106 % of control | endpoint: median survival time, dose: 15.0 mg/kg/injection, schedule: Q01DX005 (ip), vehicle: saline with Tween-80 103 % of control | endpoint: median survival time, dose: 30.0 mg/kg/injection, schedule: Q01DX005 (ip), vehicle: saline with Tween-80 106 % of control | endpoint: median survival time, dose: 60.0 mg/kg/injection, schedule: Q01DX005 (ip), vehicle: saline with Tween-80 118 % of control

Cc1ccccc1CN1C2=NCCN2C(=O)C2=C1CCN(S(=O)(=O)c1ccc(Cl)c(S(N)(=O)=O)c1)C2
inactive: [13] 95 % of control | [14] 100 % of control | [15] 93 % of control | endpoint: median survival time, dose: 400.0 mg/kg/injection, schedule: Q01DX009 (ip), vehicle: saline 88 % of control

O=C(Nc1ccccc1)Nc1ccccc1C(=O)O
inactive: [7] 100 % of control | [8] 95 % of control | [9] 94 % of control

CNCC(O)c1ccc(O)cc1 (stereo unspecified)
inactive: endpoint: mean survival time, dose: 100.0 mg/kg/injection, schedule: Q01DX009 (ip), vehicle: saline 94 % of control | endpoint: mean survival time, dose: 200.0 mg/kg/injection, schedule: Q01DX009 (ip), vehicle: saline 91 % of control

Clc1ccc(C[P+](c2ccccc2)(c2ccccc2)c2ccccc2)c(Cl)c1
inactive: endpoint: mean survival time, dose: 5.0 mg/kg/injection, schedule: Q01DX009 (ip), vehicle: saline sonified 103 % of control | endpoint: mean survival time, dose: 5.0 mg/kg/injection, schedule: Q04DX003 (ip), vehicle: saline with Tween-80 92 % of control | endpoint: mean survival time, dose: 10.0 mg/kg/injection, schedule: Q04DX003 (ip), vehicle: saline with Tween-80 96 % of control | endpoint: mean survival time, dose: 12.5 mg/kg/injection, schedule: Q04DX003 (ip), vehicle: saline with Tween-80 100 % of control | endpoint: mean survival time, dose: 20.0 mg/kg/injection, schedule: Q04DX003 (ip), vehicle: saline with Tween-80 108 % of control | endpoint: mean survival time, dose: 25.0 mg/kg/injection, schedule: Q04DX003 (ip), vehicle: saline with Tween-80 93 % of control

CC(C)c1cc2c(cc1O)C1(C)CCCC(C)(C#N)C1CC2 (stereo unspecified)
inactive: [10] 95 % of control | [11] 89 % of control | [12] 91 % of control

CC(C)[CH2][Sn]([CH2]C(C)C)([CH2]C(C)C)[O]C(=O)C1(C)CCCC2(C)C3CCC(C(C)C)=CC3=CCC12 (stereo unspecified)
inactive: endpoint: mean survival time, dose: 3.12 mg/kg/injection, schedule: Q01DX009 (ip), vehicle: saline with Tween-80 97 % of control | endpoint: mean survival time, dose: 6.25 mg/kg/injection, schedule: Q01DX009 (ip), vehicle: saline with Tween-80 90 % of control | endpoint: mean survival time, dose: 12.5 mg/kg/injection, schedule: Q01DX009 (ip), vehicle: saline with Tween-80 93 % of control
